# Test results reported in ChEMBL document CHEMBL2439971, “Design, synthesis and antiproliferative evaluation of fluorenone analogs with DNA topoisomerase I inhibitory properties” (Bioorg Med Chem, 2013).
# Activity calls are given as the source filed them. The rule behind the calls is not given here.
# Columns and labels:
# Homo sapiens = species: Homo sapiens; experiment: Inhibition of telomerase (unknown origin) at 10 uM TRAP assay
# CAKI-1 = experiment: Cytotoxicity against human CAKI-1 cells at 10 uM after 48 hrs by sulforhodamine B assay relative to control; assay type: functional
# MDA-MB-468 = experiment: Cytotoxicity against human MDA-MB-468 cells at 10 uM after 48 hrs by sulforhodamine B assay relative to control; assay type: functional
# T47D = experiment: Cytotoxicity against human T47D cells at 10 uM after 48 hrs by sulforhodamine B assay relative to control; assay type: functional
# BT-549 = experiment: Cytotoxicity against human BT549 cells at 10 uM after 48 hrs by sulforhodamine B assay relative to control; assay type: functional
# [1] = Cytotoxicity against human Hs 578T cells at 10 uM after 48 hrs by sulforhodamine B assay relative to control; assay type: functional
# MDA-MB-231 = experiment: Cytotoxicity against human MDA-MB-231 cells at 10 uM after 48 hrs by sulforhodamine B assay relative to control; assay type: functional
# MCF7 = experiment: Cytotoxicity against human MCF7 cells at 10 uM after 48 hrs by sulforhodamine B assay relative to control; assay type: functional
# DU-145 = experiment: Cytotoxicity against human DU145 cells at 10 uM after 48 hrs by sulforhodamine B assay relative to control; assay type: functional
# PC-3 [2] = experiment: Cytotoxicity against human PC3 cells at 10 uM after 48 hrs by sulforhodamine B assay relative to control; assay type: functional
# UO-31 = experiment: Cytotoxicity against human UO31 cells at 10 uM after 48 hrs by sulforhodamine B assay relative to control; assay type: functional
# TK-10 = experiment: Cytotoxicity against human TK10 cells at 10 uM after 48 hrs by sulforhodamine B assay relative to control; assay type: functional
# SN12C = experiment: Cytotoxicity against human SN12C cells at 10 uM after 48 hrs by sulforhodamine B assay relative to control; assay type: functional
# RXF 393 = experiment: Cytotoxicity against human RXF393 cells at 10 uM after 48 hrs by sulforhodamine B assay relative to control; assay type: functional
# ACHN = experiment: Cytotoxicity against human ACHN cells at 10 uM after 48 hrs by sulforhodamine B assay relative to control; assay type: functional
# 786-0 = experiment: Cytotoxicity against human 786-0 cells at 10 uM after 48 hrs by sulforhodamine B assay relative to control; assay type: functional
# NCI/ADR-RES = experiment: Cytotoxicity against human NCI/ADR-RES cells at 10 uM after 48 hrs by sulforhodamine B assay relative to control; assay type: functional
# OVCAR-8 = experiment: Cytotoxicity against human OVCAR8 cells at 10 uM after 48 hrs by sulforhodamine B assay relative to control; assay type: functional
# OVCAR-5 = experiment: Cytotoxicity against human OVCAR5 cells at 10 uM after 48 hrs by sulforhodamine B assay relative to control; assay type: functional
# OVCAR-4 = experiment: Cytotoxicity against human OVCAR4 cells at 10 uM after 48 hrs by sulforhodamine B assay relative to control; assay type: functional
# OVCAR-3 = experiment: Cytotoxicity against human OVCAR3 cells at 10 uM after 48 hrs by sulforhodamine B assay relative to control; assay type: functional
# IGROV-1 = experiment: Cytotoxicity against human IGROV1 cells at 10 uM after 48 hrs by sulforhodamine B assay relative to control; assay type: functional
# UACC-62 = experiment: Cytotoxicity against human UACC62 cells at 10 uM after 48 hrs by sulforhodamine B assay relative to control; assay type: functional
# UACC-257 = experiment: Cytotoxicity against human UACC257 cells at 10 uM after 48 hrs by sulforhodamine B assay relative to control; assay type: functional
# SK-MEL-5 = experiment: Cytotoxicity against human SK-MEL-5 cells at 10 uM after 48 hrs by sulforhodamine B assay relative to control; assay type: functional
# SK-MEL-28 = experiment: Cytotoxicity against human SK-MEL-28 cells at 10 uM after 48 hrs by sulforhodamine B assay relative to control; assay type: functional
# SK-MEL-2 = experiment: Cytotoxicity against human SK-MEL-2 cells at 10 uM after 48 hrs by sulforhodamine B assay relative to control; assay type: functional
# MDA-MB-435 = experiment: Cytotoxicity against human MDA-MB-435 cells at 10 uM after 48 hrs by sulforhodamine B assay relative to control; assay type: functional
# M14 = experiment: Cytotoxicity against human M14 cells at 10 uM after 48 hrs by sulforhodamine B assay relative to control; assay type: functional
# Malme-3M = experiment: Cytotoxicity against human MALME-3M cells at 10 uM after 48 hrs by sulforhodamine B assay relative to control; assay type: functional
# LOX IMVI = experiment: Cytotoxicity against human LOXIMVI cells at 10 uM after 48 hrs by sulforhodamine B assay relative to control; assay type: functional
# SNB-75 = experiment: Cytotoxicity against human SNB75 cells at 10 uM after 48 hrs by sulforhodamine B assay relative to control; assay type: functional
# U-251 = experiment: Cytotoxicity against human U251 cells at 10 uM after 48 hrs by sulforhodamine B assay relative to control; assay type: functional
# SF-539 = experiment: Cytotoxicity against human SF539 cells at 10 uM after 48 hrs by sulforhodamine B assay relative to control; assay type: functional
# SNB-19 = experiment: Cytotoxicity against human SNB19 cells at 10 uM after 48 hrs by sulforhodamine B assay relative to control; assay type: functional
# SF-295 = experiment: Cytotoxicity against human SF295 cells at 10 uM after 48 hrs by sulforhodamine B assay relative to control; assay type: functional
# SF-268 = experiment: Cytotoxicity against human SF268 cells at 10 uM after 48 hrs by sulforhodamine B assay relative to control; assay type: functional
# SW-620 = experiment: Cytotoxicity against human SW620 cells at 10 uM after 48 hrs by sulforhodamine B assay relative to control; assay type: functional
# KM12 = experiment: Cytotoxicity against human KM12 cells at 10 uM after 48 hrs by sulforhodamine B assay relative to control; assay type: functional
# HT-29 = experiment: Cytotoxicity against human HT-29 cells at 10 uM after 48 hrs by sulforhodamine B assay relative to control; assay type: functional
# HCT-15 = experiment: Cytotoxicity against human HCT15 cells at 10 uM after 48 hrs by sulforhodamine B assay relative to control; assay type: functional
# HCT-116 = experiment: Cytotoxicity against human HCT116 cells at 10 uM after 48 hrs by sulforhodamine B assay relative to control; assay type: functional
# HCC 2998 = experiment: Cytotoxicity against human HCC2998 cells at 10 uM after 48 hrs by sulforhodamine B assay relative to control; assay type: functional
# COLO 205 = experiment: Cytotoxicity against human COLO205 cells at 10 uM after 48 hrs by sulforhodamine B assay relative to control; assay type: functional
# NCI-H522 = experiment: Cytotoxicity against human NCI-H522 cells at 10 uM after 48 hrs by sulforhodamine B assay relative to control; assay type: functional
# NCI-H460 = experiment: Cytotoxicity against human NCI-H460 cells at 10 uM after 48 hrs by sulforhodamine B assay relative to control; assay type: functional
# NCI-H322M = experiment: Cytotoxicity against human NCI-H322M cells at 10 uM after 48 hrs by sulforhodamine B assay relative to control; assay type: functional
# NCI-H23 = experiment: Cytotoxicity against human NCI-H23 cells at 10 uM after 48 hrs by sulforhodamine B assay relative to control; assay type: functional
# NCI-H226 = experiment: Cytotoxicity against human NCI-H226 cells at 10 uM after 48 hrs by sulforhodamine B assay relative to control; assay type: functional
# HOP-92 = experiment: Cytotoxicity against human HOP92 cells at 10 uM after 48 hrs by sulforhodamine B assay relative to control; assay type: functional
# HOP-62 = experiment: Cytotoxicity against human HOP62 cells at 10 uM after 48 hrs by sulforhodamine B assay relative to control; assay type: functional
# [3] = Cytotoxicity against human EKVX cells at 10 uM after 48 hrs by sulforhodamine B assay relative to control; assay type: functional
# A549 = experiment: Cytotoxicity against human A549 cells at 10 uM after 48 hrs by sulforhodamine B assay relative to control; assay type: functional
# SR = experiment: Cytotoxicity against human SR cells at 10 uM after 48 hrs by sulforhodamine B assay relative to control; assay type: functional
# RPMI-8226 = experiment: Cytotoxicity against human RPMI8226 cells at 10 uM after 48 hrs by sulforhodamine B assay relative to control; assay type: functional
# MOLT-4 = experiment: Cytotoxicity against human MOLT4 cells at 10 uM after 48 hrs by sulforhodamine B assay relative to control; assay type: functional
# K562 = experiment: Cytotoxicity against human K562 cells at 10 uM after 48 hrs by sulforhodamine B assay relative to control; assay type: functional
# HL-60(TB) = experiment: Cytotoxicity against human HL-60(TB) cells at 10 uM after 48 hrs by sulforhodamine B assay relative to control; assay type: functional
# CCRF-CEM = experiment: Cytotoxicity against human CCRF-CEM cells at 10 uM after 48 hrs by sulforhodamine B assay relative to control; assay type: functional
# PC-3 [4] = experiment: Cytotoxicity against human PC3 cells after 48 hrs by sulforhodamine B assay; assay type: functional, cell-based; details: PC-3, 48 h
structure (smiles),measurement,setting,value
CCNCCC(=O)Nc1ccc2c(c1)C(=O)c1cc(NC(=O)CCNCC)ccc1-2,inhibition,Homo sapiens,inactive
same,Activity,CAKI-1,96.47%
same,Activity,MDA-MB-468,96.83%
same,Activity,T47D,108.97%
same,Activity,BT-549,119.2%
same,Activity,[1],98.9%
same,Activity,MDA-MB-231,105.71%
same,Activity,MCF7,87.69%
same,Activity,DU-145,120.33%
same,Activity,PC-3 [2],101.42%
same,Activity,UO-31,102.42%
same,Activity,TK-10,103.34%
same,Activity,SN12C,94.35%
same,Activity,RXF 393,105.09%
same,Activity,ACHN,120.72%
same,Activity,786-0,102.08%
same,Activity,NCI/ADR-RES,96.39%
same,Activity,OVCAR-8,103.63%
same,Activity,OVCAR-5,110.42%
same,Activity,OVCAR-4,105.01%
same,Activity,OVCAR-3,120.25%
same,Activity,IGROV-1,108.06%
same,Activity,UACC-62,100.48%
same,Activity,UACC-257,111.63%
same,Activity,SK-MEL-5,102.17%
same,Activity,SK-MEL-28,105.31%
same,Activity,SK-MEL-2,126.91%
same,Activity,MDA-MB-435,97.63%
same,Activity,M14,113.99%
same,Activity,Malme-3M,101.61%
same,Activity,LOX IMVI,97.55%
same,Activity,SNB-75,92.33%
same,Activity,U-251,92.86%
same,Activity,SF-539,116.97%
same,Activity,SNB-19,100.42%
same,Activity,SF-295,88.95%
same,Activity,SF-268,121.13%
same,Activity,SW-620,101.71%
same,Activity,KM12,114.64%
same,Activity,HT-29,104.19%
same,Activity,HCT-15,108.19%
same,Activity,HCT-116,109.77%
same,Activity,HCC 2998,104.87%
same,Activity,COLO 205,110.13%
same,Activity,NCI-H522,103.53%
same,Activity,NCI-H460,109.14%
same,Activity,NCI-H322M,100.96%
same,Activity,NCI-H23,98.77%
same,Activity,NCI-H226,105.54%
same,Activity,HOP-92,87.24%
same,Activity,HOP-62,105.98%
same,Activity,[3],102.12%
same,Activity,A549,94.72%
same,Activity,SR,101.47%
same,Activity,RPMI-8226,104.16%
same,Activity,MOLT-4,98.76%
same,Activity,K562,92.16%
same,Activity,HL-60(TB),104.46%
same,Activity,CCRF-CEM,101.3%
same,IC50,PC-3 [4],> 30 µM
CCNCC(=O)Nc1ccc2c(c1)C(=O)c1cc(NC(=O)CNCC)ccc1-2,inhibition,Homo sapiens,inactive
same,Activity,CAKI-1,94.69%
same,Activity,MDA-MB-468,63.55%
same,Activity,T47D,88.81%
same,Activity,BT-549,123.2%
same,Activity,[1],91.4%
same,Activity,MDA-MB-231,77.38%
same,Activity,MCF7,40.53%
same,Activity,DU-145,69.67%
same,Activity,PC-3 [2],67.64%
same,Activity,UO-31,89.54%
same,Activity,TK-10,88.37%
same,Activity,SN12C,77.91%
same,Activity,RXF 393,91.9%
same,Activity,ACHN,69.43%
same,Activity,786-0,101.23%
same,Activity,NCI/ADR-RES,93.46%
same,Activity,OVCAR-8,61.15%
same,Activity,OVCAR-5,116.02%
same,Activity,OVCAR-4,69.72%
same,Activity,OVCAR-3,90.91%
same,Activity,IGROV-1,97.57%
same,Activity,UACC-62,110.09%
same,Activity,UACC-257,97.32%
same,Activity,SK-MEL-5,93.43%
same,Activity,SK-MEL-28,82.07%
same,Activity,SK-MEL-2,106.9%
same,Activity,MDA-MB-435,65.72%
same,Activity,M14,90.37%
same,Activity,Malme-3M,113.96%
same,Activity,LOX IMVI,72.19%
same,Activity,SNB-75,92.67%
same,Activity,U-251,55.71%
same,Activity,SF-539,102.19%
same,Activity,SNB-19,95.76%
same,Activity,SF-295,91.26%
same,Activity,SF-268,78.21%
same,Activity,SW-620,51.79%
same,Activity,KM12,77.37%
same,Activity,HT-29,48.89%
same,Activity,HCT-15,95.25%
same,Activity,HCT-116,64.57%
same,Activity,HCC 2998,85.37%
same,Activity,COLO 205,64.33%
same,Activity,NCI-H522,82.16%
same,Activity,NCI-H460,70.36%
same,Activity,NCI-H322M,67.74%
same,Activity,NCI-H23,78.18%
same,Activity,NCI-H226,99.42%
same,Activity,HOP-62,71.54%
same,Activity,[3],90.83%
same,Activity,A549,62.52%
same,Activity,SR,81.75%
same,Activity,RPMI-8226,91.09%
same,Activity,MOLT-4,61.34%
same,Activity,K562,53.9%
same,Activity,HL-60(TB),95.53%
same,Activity,CCRF-CEM,66.36%
same,IC50,PC-3 [4],4.38 µM
